The values below come from patent US10774082B2, “Quinazoline compound” (Astellas Pharma Inc., priority 2017, dated 2020).

Test [1] concerns the target T1, KRAS G12C/SOS/c-Raf complex (Homo sapiens, UniProt P01116, G12C).
T1 construct: Biotinylated AviTag-KRAS G12C (amino acid region 1-185, GDP)
Briefly: KRAS G12C/SOS/c-Raf complex formation inhibitory action (TR-FRET). Format: biochemical. Particulars: one hour at room temperature, read-out: IC50 (KRAS G12C/SOS/c-Raf complex formation inhibition). The protocol: Evaluation of KRAS G12C/SOS/c-Raf Complex Formation Inhibitory Action
Human Recombinant KRAS G12C, SOS, and c-Raf protein were used, and with respect to the complex formation of these proteins, an inhibitory action of the test compound was examined through a time-resolved fluorescence resonance energy transfer (TR-FRET) method.
Biotinylated AviTag-KRAS G12C (amino acid region 1-185, GDP) (2.5 μL; 400 nM) dissolved in assay buffer (50 mM HEPES, 150 mM NaCl, 5 mM MgCl2, 0.05% Tween 20, pH 7.4) and test compound were added in a volume of 2.5 μL from 4,000 nM to 4 nM were added to 384 well plate (Corning Inc). Son of Sevenless (SOS) (amino acid region 564-1049, 2.5 μL; 1.3 μM) and c-Raf (amino acid region 51-131) GST containing GTP (Sigma-Aldrich Co. LLC) (2.5 μL; 130 nM and 4 μM of each) were added to the above mixture, and the resultant was left to stand for one hour at room temperature. Thereafter, a mixed solution (10 μL) of LANCE Ulight-anti-GST (120 nM, PerkinElmer. Co., Ltd) and LANCE Eu-W1024 labeled Streptoavidin (100 ng/mL, PerkinElmer. Co., Ltd) was added, and a fluorescence intensity on the condition of wavelength of 620 nm and 665 nm was measured by using EnVision 2103 Multilabel Reader (PerkinElmer Co., Ltd.) under the condition of excitation wavelength of 337 nm. […] In Tables, Ex represents Example numbers described later. In addition, in Tables, Compound C represents a test compound of Example I-59 disclosed in Pamphlet of International Publication No. WO 2016/164675, and the structures of Reference Example 1 and Reference Example 2 are indicated in Table 168 described below (the same shall apply hereinafter).

In test [2] the test system is ERK phosphorylation (Thr 202/Tyr 204) in NCI-H1373 cells. Description: ERK phosphorylation inhibitory action in NCI-H1373 (Cell ELISA). Format: cell-based, Human. Particulars: Homo sapiens, NCI-H1373, 2 h, read-out: IC50 (ERK phosphorylation inhibition). The protocol: Evaluation of ERK Phosphorylation Inhibitory Action with Respect to Human KRAS G12C Mutation Positive Non-Small Cell Lung Cancer Strain NCI-H1373
The ERK phosphorylation inhibitory action by the test compound was evaluated by measuring phosphorylation of 202th threonine (Thr 202) and 204th tyrosine (Tyr 204) of ERK on the downstream of the KRAS signal by Cell ELISA.
NCI-H1373 cells (ATCC, CRL-5866) were seeded in 384 well plates (Greiner bio-one) at 36 μL/well each so as to be 2×10^4 cell per well. Cell culture was performed under the conditions of temperature of 37° C. in the presence of 5% CO2 by using RPMI 1640 medium (Sigma-Aldrich Co. LLC) containing 10% fetal bovine serum (GE Life Sciences).
The next day, the test compounds (six points in a range of final concentration 1,000 nM to 0.3 nM), final concentration 1 μM of Trametinib (GlaxoSmithKline Inc.; MEK inhibitor) as a positive control, and DMSO which is a solvent of the test compound as a negative control were diluted 100-fold with fresh medium, 4 μL each was added to each well, and then cultured for 2 hours. Immediately after culturing, 30 μL of 30% glyoxal solution (Wako: 40% glyoxal diluted with Phosphate Buffered Saline (PBS; Wako)) was added to each well, and the cells were left to stand at room temperature for one hour to be fixed. Thereafter, the supernatant was removed by centrifuging the plate (110×g for 7 seconds, unless otherwise stated below under the same conditions), and 20 μL of PBS containing 0.1% Triton X-100 (Amersham Biosciences Corp.) was added to each well. After being left to stand at room temperature for 10 minutes, the supernatant was removed by centrifugation, and the same operation was repeated. Next, 20 μL of PBS containing 0.5% SDS (Invitrogen) was added to each well, and the mixture was left to stand at room temperature for 30 minutes, and then centrifuged to remove the supernatant. Subsequently, 20 μL of a blocking solution (ODYSSEY Blocking Buffer; LI-COR Biosciences) was added to each well, and left to stand at room temperature for one hour. The supernatant was removed by centrifugation, and 10 μL of a blocking solution prepared by diluting ERK (Thr 202/Tyr 204) of a phosphorylation antibody (Cell Signaling Technology, Inc.) as a primary antibody to be ½, 500 amount with respect to a stock solution was added to each well and was left to stand at 4° C. for overnight.
The next day, a reaction liquid is removed by centrifuging the plate, 20 μL of 0.05% Tween-20-containing PBS (Thermo Scientific; 20×PBS Tween-20 diluted 20-fold with ion exchanged water) was added to each well, and each well was washed by removing the supernatant by centrifugation. Washing was performed three times in total. After washing, 10 μL of a blocking solution prepared by diluting IRDye 800CW Goat anti-Rabbit IgG (LI-COR Biosciences) as a secondary antibody to be 1/1,000 amount with respect to a stock solution was added to each well and was left to stand at room temperature for one hour. The reaction liquid was removed by centrifuging the plate, and each well was washed three times with 0.05% Tween-20-containing PBS in the same manner as after primary antibody reaction. The centrifugation after the third wash was 171×g for 17 seconds. After removal of the cleaning solution, the plate was left to air dry at room temperature for three hours or more and the fluorescent signal at 800 nm was measured by Aerius (LI-COR Biosciences).
When a signal value at the time of adding DMSO was set as 0% inhibition, and a signal value at the time of adding 1 μM of Trametinib was set as 100% inhibition, a value of 50% inhibition (IC50) was calculated through Sigmoid-Emax model nonlinear regression analysis.

For a further test, the system named is NCI-H1373 cells. Briefly: Anchorage-independent cell proliferation inhibitory action, NCI-H1373 spheroid three-dimensional culture. Format: cell-based, Human. To be noted: Homo sapiens, NCI-H1373, 144 h, read-out: IC50 (anchorage-independent cell proliferation inhibition). The protocol:
Evaluation of Anchorage-Independent Cell Proliferation Inhibitory Action with Respect to Human KRAS G12C Mutation Positive Non-Small Cell Lung Cancer Strain NCI-H1373
An anchorage-independent cell proliferation inhibitory action by the test compound was evaluated by a spheroid three-dimensional culture.
NCI-H1373 cells were seeded in cell low adsorption U bottom 384 well plates (Prime Surface: Sumitomo Bakelite Co., Ltd.) at 36 μL/well each so as to be 5×10^2 cell per well. The cell culture was performed under the same conditions as Test example 2.
The next day, the test compounds (six points in a range of final concentration 1,000 nM to 0.3 nM) and DMSO which is a solvent of the test compound as a negative control were diluted 100-fold with fresh medium, 4 μL each was added to each well. After culturing at 37° C. in the presence of 5% CO2 for six days, 20 μL of CellTiter Glo or to CellTiter Glo 2.0 (Promega Corporation) was added to each well. After stirring for one hour at room temperature using a plate mixer (FINEPCR), an emission signal was measured with ARVO X3 (PerkinElmer Co., Ltd.).
When a signal value in a DMSO treatment was set as 0% inhibition, and a signal value in cell-free medium only was set as 100% inhibition, a value of 50% inhibition (IC50) was calculated through Sigmoid-Emax model nonlinear regression analysis.

Where [3] appears, read: NCI-H1373 cells, cultured for 2 hours, 100% = 1 μM Trametinib.
[4] abbreviates: NCI-H1373 spheroid, six days, CellTiter Glo.

Each structure is given as a SMILES string. Read-outs that look alike come from different tables or passages of the source.

T1 sequence (P01116 1-185 isoform P01116-2 G12C, one chain of several): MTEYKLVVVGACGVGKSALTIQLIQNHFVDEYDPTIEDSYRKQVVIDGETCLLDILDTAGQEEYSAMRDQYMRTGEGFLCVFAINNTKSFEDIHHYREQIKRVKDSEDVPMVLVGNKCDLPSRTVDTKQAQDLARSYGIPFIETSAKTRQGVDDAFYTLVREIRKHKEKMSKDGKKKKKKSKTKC

For the compound `C=CC(=O)N1CC2(CCN(c3nc(OC4CCN(C)CC4)nc4c(OCC(F)F)c(-c5c(C)ccc6[nH]ncc56)c(C=C)cc34)CC2)C1` [Ex 1], the IC50 amounted to 34 nM in test [1], 6.4 nM in test [2] (setting [3]) and 12 nM with NCI-H1373 cells (setting [4]).

Turning to `C=CC(=O)N1CC2(CCN(c3nc(OC4CCN(CCOC)CC4)nc4c(OCC(F)(F)F)c(-c5c(C)ccc6[nH]ncc56)c(C=C)cc34)CC2)C1` [Ex 36], the IC50 in test [1] stood at 21 nM.

As to `C=CC(=O)N1CC2(CCN(c3nc(OC4CCN(CCCOC)CC4)nc4c(OCC(F)(F)F)c(-c5c(C)ccc6[nH]ncc56)c(C5CC5)cc34)CC2)C1` [Ex 38], the IC50 in test [1] was determined as 15 nM.

With `C=CC(=O)N1CC2(CCN(c3nc(OC4CCN(CCOCC5CC5)CC4)nc4c(OCC(F)(F)F)c(-c5c(C)ccc6[nH]ncc56)c(C=C)cc34)CC2)C1` [Ex 41], the IC50 in test [1] was determined as 42 nM; in test [2] (setting [3]), 6.2 nM; in the test with NCI-H1373 cells (setting [4]) it was 14 nM.

Take `C=CC(=O)N1CC2(CCN(c3nc(SC4CCN(C)CC4)nc4c(OCC(F)(F)F)c(-c5c(C)ccc6[nH]ncc56)c(C=C)cc34)CC2)C1` [Ex 51]: the figures for the IC50 (in test [1]; in test [2] (setting [3]); in the test on NCI-H1373 cells (setting [4])) were 59 nM, 8.9 nM and 24 nM, respectively.

On to `COCCN1CCC(Oc2nc(N3CCC4(CC3)CN(C(=O)/C=C/C(F)(F)F)C4)c3cc(C4CC4)c(-c4c(C)ccc5[nH]ncc45)c(OCC(F)F)c3n2)CC1` [Ex 82], for which the IC50 in test [1] is 43 nM; in test [2] (setting [3]), 16 nM; with NCI-H1373 cells (setting [4]), 62 nM.

On to `C=CC(=O)N1CC2(CCN(c3nc(OC4CCN(CC)CC4)nc4c(OCC)c(-c5c(C)c(F)cc6[nH]ncc56)c(C=C)cc34)CC2)C1` [Example 8], for which the IC50 in test [1] turned out to be 32 nM; in test [2] (setting [3]) it was 2.6 nM; with NCI-H1373 cells (setting [4]) it was 3.5 nM.

As for `C=CC(=O)N1CC2(CCN(c3nc(OC4CCN(CC)CC4)nc4c(OCC(F)(F)F)c(-c5c(C)ccc6[nH]ncc56)c(C=C)cc34)CC2)C1` [Example 9], the values for the IC50 (in test [1]; in test [2] (setting [3]); in the test on NCI-H1373 cells (setting [4])) were 55 nM, 3.8 nM and 5.5 nM, respectively.

Regarding `C=CC(=O)N1CC2(CCN(c3nc(OC4CCN(CC)CC4)nc4c(OCC(F)F)c(-c5c(C)ccc6[nH]ncc56)c(C=C)cc34)CC2)C1` [Example 10], the IC50 in test [1] came to 34 nM; in test [2] (setting [3]), 5.7 nM; in the test with NCI-H1373 cells (setting [4]), 10 nM.

In the case of `C=CC(=O)N1CC2(CCN(c3nc(OC4CCN(CC)CC4)nc4c(OC5CC(F)(F)C5)c(-c5c(C)ccc6[nH]ncc56)c(C=C)cc34)CC2)C1` [Example 11], the IC50 came out at 38 nM in test [1], 10 nM in test [2] (setting [3]) and 12 nM in the test with NCI-H1373 cells (setting [4]).

As to `C=CC(=O)N1CC2(CCN(c3nc(OC4CCN(C(C)C)CC4)nc4c(OCC)c(-c5c(C)ccc6[nH]ncc56)c(C=C)cc34)CC2)C1` [Example 12], the IC50 in test [1] is 23 nM; in test [2], 6.7 nM; with NCI-H1373 cells it was 11 nM.

Consider `C=CC(=O)N1CC2(CCN(c3nc(OC4CCN(CCOC)CC4)nc4c(OCC)c(-c5c(C)ccc6[nH]ncc56)c(C=C)cc34)CC2)C1` [Example 13], for which the IC50 in test [1] amounted to 37 nM; in test [2], 11 nM; in the test with NCI-H1373 cells, 13 nM.

`C=CC(=O)N1CC2(CCN(c3nc(OC[C@@H]4CCCN4C)nc4c(OCC(F)F)c(-c5c(C)ccc6[nH]ncc56)c(C=C)cc34)CC2)C1` [Example 14]: the results for the IC50 (in test [1]; in test [2]; in the test on NCI-H1373 cells) were 50 nM, 6.1 nM and 8.8 nM, respectively.

Turning to `C=CC(=O)N1CC2(CCN(c3nc(OC4CCN(C)CC4)nc4c(OC5CCC5)c(-c5c(C)ccc6[nH]ncc56)c(C=C)cc34)CC2)C1` [Example 17], the IC50 in test [1] was 34 nM; in test [2], 4.9 nM; in the test on NCI-H1373 cells, 12 nM.

For `C=CC(=O)N1CC2(CCN(c3nc(OC4CCN(CC)CC4)nc4c(OCC)c(-c5c(C)ccc6[nH]ncc56)c(C5CC5)cc34)CC2)C1` [Example 18], the IC50 is 46 nM in test [1], 5.9 nM in test [2] (setting [3]) and 7.3 nM in the test on NCI-H1373 cells (setting [4]).

Regarding `C=CC(=O)N1CC2(CCN(c3nc(OC4CCN(CC)CC4)nc4c(OC5CCC5)c(-c5c(C)ccc6[nH]ncc56)c(C5CC5)cc34)CC2)C1` [Example 19], the IC50 came to 48 nM in test [1], 4.5 nM in test [2] (setting [3]) and 15 nM in the test with NCI-H1373 cells (setting [4]).

On to `C=CC(=O)N1CC2(CCN(c3nc(OC4CCN(CC)CC4)nc4c(OC5CCC5)c(-c5c(C)ccc6[nH]ncc56)c(C=C)cc34)CC2)C1` [Example 20], for which the IC50 in test [1] turned out to be 32 nM; in test [2] (setting [3]), 6.5 nM; in the test on NCI-H1373 cells (setting [4]), 11 nM.

With `C=CC(=O)N1CC2(CCN(c3nc(OC4CCN(CC)CC4)nc4c(OCC)c(-c5c(Cl)ccc6[nH]ncc56)c(C=C)cc34)CC2)C1` [Example 21], the values for the IC50 (in test [1]; in test [2] (setting [3]); with NCI-H1373 cells (setting [4])) were 65 nM, 14 nM and 27 nM, respectively.
